From patent publication US20240059691A1 (KALVISTA PHARMACEUTICALS LIMITED, priority 2020, published 2024)

What was measured:
Type in all cases: biochemical
Human Factor XIIa = Human Factor XIIa (Homo sapiens (Human), UniProt P00748); assay: Determination of FXIIa inhibition (fluorogenic substrate H-DPro-Phe-Arg-AFC, IC50 assay); settings: substrate H-DPro-Phe-Arg-AFC at Km, 25° C.; class scale A-G
Summary of the method: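 IC50 derived from % remaining activity, taken as the linear fluorescence rate over a 5 min read at 25° C. Substrate H-DPro-Phe-Arg-AFC was used at its Km (Michaelis-Menten) with human FXIIa and serial compound dilutions, 25° C.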

Plasma Kallikrein = Plasma Kallikrein (Homo sapiens (Human), UniProt P03952); assay: Determination of related protease inhibition: Plasma Kallikrein (fluorogenic substrate at Km); settings: 25° C., read-out: IC50 (human PKal)
Summary of the method: (§1)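 IC50 values derive from the linear rate of fluorescence increase, normalised to uninhibited enzyme as 100% activity. Each human protease was run against its fluorogenic substrate at Km concentration with varying compound levels, with product fluorescence followed over 5 min at 25 °C.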

KLK1 = KLK1 (Homo sapiens (Human), UniProt P06870); assay: Determination of related protease inhibition: KLK1 (fluorogenic substrate at Km); settings: 25° C.
Summary of the method: as §1

FXa = FXa (Homo sapiens (Human), UniProt P00742); assay: Determination of related protease inhibition: FXa (fluorogenic substrate at Km); settings: 25° C.
Summary of the method: as §1

Thrombin = Thrombin (Homo sapiens (Human), UniProt P00734); assay: Determination of related protease inhibition: Thrombin (fluorogenic substrate at Km); settings: 25° C.
Description: Determination of Related Protease Inhibition
In vitro inhibition of related proteases was determined using an ([…] assay based on standard literature methods (see e.g. Shori et al., Biochem. Pharmacol., 1992, 43, 1209; Bouckaert et al., European Journal of Medicinal Chemistry 110 (2016) 181). Human serine protease enzymes Plasma Kallikrein, KLK1, FXa, Plasmin, Thrombin and Trypsin were assayed for enzymatic activity using an appropriate fluorogenic substrate at Km concentration, FXIa at fixed substrate concentration of 100 μM, and various concentrations of the test compound. Protease activity was measured by monitoring the accumulation of liberated fluorescence from the substrate over […]. The linear rate of fluorescence increase per minute was expressed as percentage (%) activity. IC50 values were calculated as the concentration of inhibitor giving 50% inhibition of the uninhibited enzyme activity (100%).

KLK1, sequence (P06870 25-262): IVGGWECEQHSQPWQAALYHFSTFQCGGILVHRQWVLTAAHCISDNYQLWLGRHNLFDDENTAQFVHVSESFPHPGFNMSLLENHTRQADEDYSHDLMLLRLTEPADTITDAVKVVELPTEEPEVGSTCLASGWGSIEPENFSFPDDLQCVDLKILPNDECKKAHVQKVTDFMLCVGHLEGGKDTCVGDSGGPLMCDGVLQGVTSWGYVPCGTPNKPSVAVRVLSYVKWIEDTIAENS
Plasma Kallikrein, sequence (P03952 391-638): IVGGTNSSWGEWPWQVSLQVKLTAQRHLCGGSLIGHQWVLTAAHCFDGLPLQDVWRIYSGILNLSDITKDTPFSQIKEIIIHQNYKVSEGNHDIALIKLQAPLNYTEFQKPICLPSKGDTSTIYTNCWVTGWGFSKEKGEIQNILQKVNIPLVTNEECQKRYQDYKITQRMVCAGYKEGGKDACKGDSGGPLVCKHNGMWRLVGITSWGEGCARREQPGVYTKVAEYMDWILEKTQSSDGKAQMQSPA
Plasma Kallikrein, sequence (P03952 20-390 partner): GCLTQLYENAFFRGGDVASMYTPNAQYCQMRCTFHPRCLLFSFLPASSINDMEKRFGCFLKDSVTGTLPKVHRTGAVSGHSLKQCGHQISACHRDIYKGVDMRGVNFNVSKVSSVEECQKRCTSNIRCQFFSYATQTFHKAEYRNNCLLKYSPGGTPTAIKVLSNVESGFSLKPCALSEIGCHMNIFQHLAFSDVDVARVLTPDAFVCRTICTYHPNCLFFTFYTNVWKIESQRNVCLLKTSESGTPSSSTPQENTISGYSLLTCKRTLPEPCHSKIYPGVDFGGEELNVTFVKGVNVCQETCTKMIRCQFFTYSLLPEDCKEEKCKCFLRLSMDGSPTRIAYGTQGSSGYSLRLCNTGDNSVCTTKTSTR
FXa, sequence (P00742 235-488): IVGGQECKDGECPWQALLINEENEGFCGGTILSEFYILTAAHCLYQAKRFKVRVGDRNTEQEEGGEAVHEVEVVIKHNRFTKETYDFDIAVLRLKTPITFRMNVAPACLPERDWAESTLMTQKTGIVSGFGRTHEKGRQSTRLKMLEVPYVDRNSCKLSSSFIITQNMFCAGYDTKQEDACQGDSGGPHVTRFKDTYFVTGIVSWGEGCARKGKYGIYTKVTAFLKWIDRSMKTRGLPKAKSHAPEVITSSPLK
FXa, sequence (P00742 41-179 partner): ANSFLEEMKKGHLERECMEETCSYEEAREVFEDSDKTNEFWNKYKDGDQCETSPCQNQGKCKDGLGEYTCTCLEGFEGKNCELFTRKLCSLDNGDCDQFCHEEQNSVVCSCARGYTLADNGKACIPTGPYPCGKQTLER
Human Factor XIIa, sequence (P00748 373-615): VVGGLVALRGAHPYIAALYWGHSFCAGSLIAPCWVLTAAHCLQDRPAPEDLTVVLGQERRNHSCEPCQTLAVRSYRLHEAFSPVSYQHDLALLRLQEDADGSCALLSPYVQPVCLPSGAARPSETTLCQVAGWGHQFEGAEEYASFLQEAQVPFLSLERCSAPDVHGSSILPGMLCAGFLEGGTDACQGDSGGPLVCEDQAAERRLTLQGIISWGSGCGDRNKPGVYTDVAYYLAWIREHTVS

| IC50 (Human Factor XIIa) [µM] | IC50 (Plasma Kallikrein) [µM] | IC50 (KLK1) [µM] | IC50 (FXa) [µM] | IC50 (Thrombin) [µM] | Structure (SMILES) |
| --- | --- | --- | --- | --- | --- |
| 3 to 10 | 10 to 40 | > 100 | > 40 | 10 to 40 | CN1CCC(CNc2ccc(CNc3cncc4[nH]ccc34)cn2)CC1 [Example 1213, N-((6-(((1-methylpiperidin-4-yl)methyl)amino)pyridin-3-yl)methyl)-1H-pyrrolo[2,3-c]pyridin-4-amine] |
| 0.1 to 0.3 | > 40 | 3 to 10 | > 40 | > 40 | Cc1nnc2n1CCN(c1ccc(CNc3cccc4c(N)nccc34)cn1)C2 [Example 1279, N5-((6-(3-methyl-5,6-dihydro-[1,2,4]triazolo[4,3-a]pyrazin-7(8H)-yl)pyridin-3-yl)methyl)isoquinoline-1,5-diamine] |
| 1 to 3 | 3 to 10 | 10 to 40 | 10 to 40 | 10 to 40 | Cn1ccnc1COCc1ccc(CNc2cccc3c(N)nccc23)c(F)c1 [Example 2207, N5-(2-fluoro-4-(((1-methyl-1H-imidazol-2-yl)methoxy)methyl)benzyl)isoquinoline-1,5-diamine] |
| 0.01 to 0.1 | 3 to 10 | 0.3 to 1 | 0.1 to 0.3 | 0.3 to 1 | Nc1nccc2cc(NCc3ccnc(OCC4CCn5ccnc5C4)c3)ccc12 (single isomer, unassigned) [Example 4267, 6-N-({2-[(7S*)-5H,6H,7H,8H-imidazo[1,2-a]pyridin-7-ylmethoxy]pyridin-4-yl}methyl)isoquinoline-1,6-diamine] |
| 0.3 to 1 | 10 to 40 | 3 to 10 | > 40 | > 40 | CN1CCC(CNc2cc(CNc3cccc4c(N)nccc34)ccn2)CC1 [Example 4286, N5-((2-(((1-methylpiperidin-4-yl)methyl)amino)pyridin-4-yl)methyl)isoquinoline-1,5-diamine] |
| 0.1 to 0.3 | > 40 | > 40 | 10 to 40 | 10 to 40 | Cc1cc2c(NCc3ccc(NCC4CCN(C)CC4)nc3)ccnc2[nH]1 [Example 1202, 2-Methyl-N-((6-(((1-methylpiperidin-4-yl)methyl)amino)pyridin-3-yl)methyl)-1H-pyrrolo[2,3-b]pyridin-4-amine] |
| 0.3 to 1 | 10 to 40 | 3 to 10 | 10 to 40 | 10 to 40 | Nc1nccc2c(NCc3ccc(OCC4CCn5ccnc5C4)nc3)cccc12 (single isomer, unassigned) [Example 1030, (S*)-N5-((6-((5,6,7,8-tetrahydroimidazo[1,2-a]pyridin-7-yl)methoxy)pyridin-3-yl)methyl)isoquinoline-1,5-diamine] |
| 0.3 to 1 | 10 to 40 | 3 to 10 | > 40 | > 40 | CC(C)N1C[C@H]2C[C@@H]1CN2CCc1ccc(CNc2ccc3c(N)ncc(Cl)c3c2)c(F)c1 [Example 2214, 4-chloro-6-N-[(2-fluoro-4-{2-[(1R,4R)-5-isopropyl-2,5-diazabicyclo[2.2.1]heptan-2-yl]ethyl}phenyl)methyl]isoquinoline-1,6-diamine] |
| 0.3 to 1 | > 40 | 10 to 40 | > 40 | > 40 | CN1CCC(NC(=O)c2cc(CNc3cccc4c(N)nccc34)ccn2)CC1 [Example 4289, 4-(((1-aminoisoquinolin-5-yl)amino)methyl)-N-(1-methylpiperidin-4-yl)picolinamide] |
| 3 to 10 | > 40 | > 40 | > 40 | > 100 | CN1CCC(CNc2ccc(CNc3ccc4cnccc4c3F)cn2)CC1 [Example 1224, 5-fluoro-N-((6-(((1-methylpiperidin-4-yl)methyl)amino)pyridin-3-yl)methyl)isoquinolin-6-amine] |
| 0.01 to 0.1 | 10 to 40 | 10 to 40 | 1 to 3 | 3 to 10 | CN1CCC(CNc2ccc(CNc3cncc4[nH]c(Cl)cc34)cn2)CC1 [Example 1251, 2-Chloro-N-((6-(((1-methylpiperidin-4-yl)methyl)amino)pyridin-3-yl)methyl)-1H-pyrrolo[2,3-c]pyridin-4-amine] |
| 0.01 to 0.1 | 3 to 10 | 0.3 to 1 | 0.01 to 0.1 | 1 to 3 | CN1CC2CCC(C1)C2COc1cc(CNc2ccc3c(N)nccc3c2)ccn1 (stereo not drawn) [Example 4270, N6-((2-((3-methyl-3-azabicyclo[3.2.1]octan-8-yl)methoxy)pyridin-4-yl)methyl)isoquinoline-1,6-diamine] |
| 1 to 3 | > 40 | 3 to 10 | 10 to 40 | > 40 | Cn1ccnc1CCOc1cc(CNc2cccc3c(N)nccc23)ccn1 [Example 4282, 5-N-({2-[2-(1-methylimidazol-2-yl)ethoxy]pyridin-4-yl}methyl)isoquinoline-1,5-diamine] |
| 0.01 to 0.1 | 1 to 3 | 0.3 to 1 | 3 to 10 | 3 to 10 | CN1CCC(CNc2ccc(CNc3ccc4c(N)nccc4c3)cn2)CC1 [Example 1033, N6-((6-(((1-methylpiperidin-4-yl)methyl)amino)pyridin-3-yl)methyl)isoquinoline-1,6-diamine] |
| 3 to 10 | > 40 | 10 to 40 | > 40 | > 40 | Cn1ccnc1CCCOc1ncc(CNc2cccc3c(N)nccc23)cn1 [Example 1035, N5-((2-(3-(1-methyl-1H-imidazol-2-yl)propoxy)pyrimidin-5-yl)methyl)isoquinoline-1,5-diamine] |
| 0.1 to 0.3 | 10 to 40 | 1 to 3 | 0.3 to 1 | 10 to 40 | CN1CCC(CNc2cc(CNc3ccc4c(N)nccc4c3)ccn2)CC1 [Example 4284, 6-N-[(2-{[(1-methylpiperidin-4-yl)methyl]amino}pyridin-4-yl)methyl]isoquinoline-1,6-diamine] |
| 0.1 to 0.3 | > 40 | 3 to 10 | 1 to 3 | > 40 | CN1CC2CCC(C1)C2COc1cc(CNc2cccc3c(N)nccc23)ccn1 (stereo not drawn) [Example 4278, 5-N-[[2-[(3-methyl-3-azabicyclo[3.2.1]octan-8-yl)methoxy]-4-pyridyl]methyl]isoquinoline-1,5-diamine] |
| 0.3 to 1 | 10 to 40 | 10 to 40 | > 40 | > 40 | CC(C)N1CC2(CN(Cc3ccc(CNc4cccc5c(N)nccc45)c(F)c3)C2)C1 [Example 1036, N5-(2-fluoro-4-((6-isopropyl-2,6-diazaspiro[3.3]heptan-2-yl)methyl)benzyl)isoquinoline-1,5-diamine] |
| 1 to 3 | > 40 | 10 to 40 | 10 to 40 | 10 to 40 | Cn1ccnc1CCOCc1ccc(CNc2cccc3c(N)nccc23)c(F)c1 [Example 2208, N5-[[2-fluoro-4-[2-(1-methylimidazol-2-yl)ethoxymethyl]phenyl]methyl]isoquinoline-1,5-diamine] |
| 1 to 3 | 10 to 40 | 1 to 3 | 3 to 10 | 3 to 10 | CN1CC(C2CN(c3cc(CNc4ccc5c(N)nccc5c4)ccn3)C2)C1 [Example 5435, N6-((2-(1′-methyl-[3,3′-biazetidin]-1-yl)pyridin-4-yl)methyl)isoquinoline-1,6-diamine] |
| 0.1 to 0.3 | > 40 | 3 to 10 | 3 to 10 | > 40 | Nc1nccc2cc(NCc3ccnc(-c4cccc(CN5CCCC5)c4)c3)ccc12 [Example 4434, 6-N-({2-[3-(pyrrolidin-1-ylmethyl)phenyl]pyridin-4-yl}methyl)isoquinoline-1,6-diamine] |
| 1 to 3 | > 40 | 3 to 10 | > 40 | > 40 | COc1nnc2n1CCN(c1ccc(CNc3cccc4c(N)nccc34)cn1)C2 [Example 1250, N5-((6-(3-methoxy-5,6-dihydro-[1,2,4]triazolo[4,3-a]pyrazin-7(8H)-yl)pyridin-3-yl)methyl)isoquinoline-1,5-diamine] |
| 3 to 10 | > 40 | 3 to 10 | > 40 | > 40 | CN1CCN(CCc2ccc(CNc3ccc4c(N)ncc(Cl)c4c3)c(F)c2)CC1 [Example 2184, 4-Chloro-N6-[[2-fluoro-4-[2-(4-methylpiperazin-1-yl)ethyl]phenyl]methyl]isoquinoline-1,6-diamine] |
| 3 to 10 | > 40 | > 40 | > 40 | > 40 | CN1CCC(COc2cc(CNc3ccnc4c(N)nccc34)ccn2)CC1 [Example 4272, 4-N-[[2-[(1-methyl-4-piperidyl)methoxy]-4-pyridyl]methyl]-1,7-naphthyridine-4,8-diamine] |
